# Laboratory results from US20260184706A1, “PHENYLSULFONAMIDE DERIVATIVES, PREPARATION METHOD THEREFOR, AND PHARMACEUTICAL COMPOSITION FOR PREVENTION OR TREATMENT OF CANCER CONTAINING SAME AS ACTIVE INGREDIENT” (Korea Research Institute of Chemical Technology, priority 2022, published 2026).
# Target: recombinant human GCN2 protein (Homo sapiens, UniProt Q9P2K8)
# Experiment: General control nonderepressible 2 (GCN2) inhibitory capacity, 33P-ATP filter assay
# Assay type: biochemical
# Conditions: recombinant human GCN2, 70 uM [gamma-33P-ATP], 40 minutes, room temperature
# Method: <Experimental Example 2> Evaluation of General Control Nonderepressible 2 (GCN2) Inhibitory Capacity
# A recombinant human GCN2 protein was mixed with the compound in a reaction solution (20 mM Tris/HCl pH8.5, 0.2 mM EDTA, 0.1% Tween, 100 mM NaCl, 300 μM RSRSRSRSRSRSRSR, 10 mM Magnesium acetate, 70 uM [gamma-33P-ATP]) and reacted at room temperature for 40 minutes. Then, the reaction was terminated by adding phosphoric acid (0.5%) to the reaction mixture, and 10 ul of the reaction solution was dropped onto a P30 filter. The filter was washed four times in a 0.425% phosphoric acid solution for 4 minutes, then washed once more in methanol, dried, and the GCN2 activity was measured by scintillation counting. […] The compound was diluted by 1/3 from the highest concentration of 1 uM and treated with a total of 9 concentrations to evaluate the degree of inhibition.
# Sequence of recombinant human GCN2 protein (Q9P2K8 whole entry): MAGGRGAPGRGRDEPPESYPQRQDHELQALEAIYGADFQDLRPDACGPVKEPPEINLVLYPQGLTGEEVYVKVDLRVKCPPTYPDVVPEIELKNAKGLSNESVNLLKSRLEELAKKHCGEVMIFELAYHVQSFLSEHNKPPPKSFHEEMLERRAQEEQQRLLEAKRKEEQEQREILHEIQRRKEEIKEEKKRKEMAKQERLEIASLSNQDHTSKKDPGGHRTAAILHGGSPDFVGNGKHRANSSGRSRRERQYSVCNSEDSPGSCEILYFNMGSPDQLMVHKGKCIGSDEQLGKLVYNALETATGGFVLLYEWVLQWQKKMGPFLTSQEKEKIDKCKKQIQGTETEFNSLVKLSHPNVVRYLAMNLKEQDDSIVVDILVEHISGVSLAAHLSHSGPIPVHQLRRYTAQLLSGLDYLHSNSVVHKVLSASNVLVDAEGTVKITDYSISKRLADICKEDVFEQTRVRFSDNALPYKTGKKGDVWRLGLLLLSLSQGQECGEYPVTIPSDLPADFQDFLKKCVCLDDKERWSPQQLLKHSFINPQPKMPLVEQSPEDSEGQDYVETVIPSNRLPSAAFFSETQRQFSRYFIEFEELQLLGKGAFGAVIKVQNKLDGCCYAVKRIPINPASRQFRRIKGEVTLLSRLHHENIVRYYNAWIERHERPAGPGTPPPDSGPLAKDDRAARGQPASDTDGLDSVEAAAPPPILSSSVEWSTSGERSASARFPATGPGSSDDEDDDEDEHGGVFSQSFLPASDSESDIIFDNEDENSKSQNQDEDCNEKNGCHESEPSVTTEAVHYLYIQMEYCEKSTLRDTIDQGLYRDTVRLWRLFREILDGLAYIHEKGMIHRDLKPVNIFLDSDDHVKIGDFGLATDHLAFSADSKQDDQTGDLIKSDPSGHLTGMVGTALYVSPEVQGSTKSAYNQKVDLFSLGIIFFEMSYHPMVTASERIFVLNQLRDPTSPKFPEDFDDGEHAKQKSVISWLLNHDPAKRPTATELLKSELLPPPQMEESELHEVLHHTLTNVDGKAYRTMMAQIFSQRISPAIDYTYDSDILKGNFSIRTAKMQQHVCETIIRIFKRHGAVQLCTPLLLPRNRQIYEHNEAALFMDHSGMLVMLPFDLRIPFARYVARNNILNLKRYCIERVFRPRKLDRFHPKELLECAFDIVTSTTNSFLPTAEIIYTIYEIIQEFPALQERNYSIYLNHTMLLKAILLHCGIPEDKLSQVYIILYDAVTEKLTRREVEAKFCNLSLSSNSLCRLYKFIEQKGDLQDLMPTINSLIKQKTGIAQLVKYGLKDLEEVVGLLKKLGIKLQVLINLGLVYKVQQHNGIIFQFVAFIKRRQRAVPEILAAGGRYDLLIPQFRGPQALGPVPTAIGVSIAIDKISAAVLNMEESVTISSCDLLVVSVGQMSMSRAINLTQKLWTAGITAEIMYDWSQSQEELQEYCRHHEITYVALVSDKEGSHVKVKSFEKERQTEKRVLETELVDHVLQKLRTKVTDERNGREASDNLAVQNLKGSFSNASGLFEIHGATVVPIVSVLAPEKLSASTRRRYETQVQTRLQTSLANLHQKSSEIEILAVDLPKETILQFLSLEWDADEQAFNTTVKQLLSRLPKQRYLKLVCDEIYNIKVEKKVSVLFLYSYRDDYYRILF
row,Compound,IC50 [nM]
1,"COc1ncc(Cl)cc1S(=O)(=O)Nc1ccc(F)c(-n2cc(C)c3nc(N)ncc3c2=O)c1F [Example 21, N-(3-(2-amino-8-methyl-5-oxopirido[4,3-d]pyrimidin-6(5H)-yl)-2,4-difluorophenyl)-5-chloro-2-methoxypyridine-3-sulfonamide]",< 100
2,"COc1ncc(Cl)cc1S(=O)(=O)Nc1ccc(F)c(-n2cc(CO)c3nc(N)ncc3c2=O)c1F [Example 23, N-(3-(2-amino-8-hydroxymethyl)-5-oxopirido[4,3-d]pyrimidin-6(5H)-2,4-difluorophenyl)-5-chloro-2-methoxypyridine-3-sulfonamide]",100 to 300
3,"Nc1ncc2c(=O)n(-c3c(F)ccc(NS(=O)(=O)c4cc(Cl)ccc4Cl)c3F)ccc2n1 [Example 24, N-(3-(2-amino-5-oxopirido[4,3-d]pyrimidin-6(5H)-yl)-2,4-difluorophenyl)-2,5-dichlorobenzenesulfonamide]",< 100
4,"Cc1nn(C)c(Cl)c1S(=O)(=O)Nc1ccc(F)c(-n2ccc3nc(N)ncc3c2=O)c1F [Example 30, N-(3-(2-amino-5-oxopirido[4,3-d]pyrimidin-6(5H)-yl)-2,4-difluorophenyl)-5-chloro-1,3-dimethyl-1H-pyrazole-4-sulfonamide]",100 to 300
5,"Nc1ncc2c(=O)n(-c3c(F)ccc(NS(=O)(=O)c4ccc(Cl)s4)c3F)ccc2n1 [Example 31, N-(3-(2-amino-5-oxopirido[4,3-d]pyrimidin-6(5H)-yl)-2,4-difluorophenyl)-5-chlorothiophene-2-sulfonamide]",100 to 300
6,"COc1ncc(Cl)cc1S(=O)(=O)Nc1ccc(F)c(-n2cc(Br)c3nc(N)ncc3c2=O)c1F [Example 33, N-(3-(2-amino-8-bromo-5-oxopirido[4,3-d]pyrimidin-6(5H)-yl)-2,4-difluorophenyl)-5-chloro-2-methoxypyridine-3-sulfonamide]",> 1000
7,"Cc1nn(-c2c(F)ccc(NS(=O)(=O)c3cc(Cl)ccc3Cl)c2F)c(=O)c2cnc(N)nc12 [Example 34, N-(3-(2-amino-8-methyl-5-oxopyrimido[4,5-d]pyridazine-6(5H)-yl)-2,4-difluorophenyl)-2,5-dichlorobenzenesulfonamide]",< 100
8,"Cc1nn(-c2c(F)ccc(NS(=O)(=O)c3cn(C)nc3C(F)(F)F)c2F)c(=O)c2cnc(N)nc12 [Example 35, N-(3-(2-amino-8-methyl-5-oxopyrimido[4,5-d]pyridazine-6(5H)-yl)-2,4-difluorophenyl)-1-methyl-3-(trifluoromethyl)-1H-pyrazole-4-sulfonamide]",> 1000
9,"Cc1nn(-c2c(F)ccc(NS(=O)(=O)c3cc(Cl)cc(CO)c3Cl)c2F)c(=O)c2cnc(N)nc12 [Example 37, N-(3-(2-amino-8-methyl-5-oxopyrimido[4,5-d]pyridazine-6(5H)-yl)-2,4-difluorophenyl)-2,5-dichloro-3-(hydroxymethyl)benzene sulfonamide]",> 1000
10,"CN1CN(c2c(F)ccc(NS(=O)(=O)c3cc(Cl)ccc3Cl)c2F)C(=O)c2cnc(N)nc21 [Example 39, N-(3-(7-amino-1-methyl-4-oxo-1,4-dihydropyrimido[4,5-d]pyrimidin-3(2H)-yl)-2,4-difluorophenyl)-2,5-dichlorobenzenesulfonamide]",100 to 300
11,"COc1ncc(Cl)cc1S(=O)(=O)Nc1ccc(F)c(N2CN(C)c3nc(N)ncc3C2=O)c1F [Example 40, N-(3-(7-amino-1-methyl-4-oxo-1,4-dihydropyrimido[4,5-d]pyrimidin-3(2H)-yl)-2,4-difluorophenyl)-5-chloro-2-methoxypyridine-3-sulfonamide]",100 to 300
12,"CN1CN(c2c(F)ccc(NS(=O)(=O)c3cccc4ccccc34)c2F)C(=O)c2cnc(N)nc21 [Example 41, N-(3-(7-amino-1-methyl-4-oxo-1,4-dihydropyrimido[4,5-d]pyrimidin-3(2H)-yl)-2,4-difluorophenyl)naphthalene-1-sulfonamide]",100 to 300
13,"Cn1c(=O)n(-c2c(F)ccc(NS(=O)(=O)c3cc(Cl)ccc3Cl)c2F)c(=O)c2cnc(N)nc21 [Example 42, N-(3-(7-amino-1-methyl-2,4-dioxo-1,4-dihydropyrimido[4,5-d]pyrimidin-3(2H)-yl)-2,4-difluorophenyl)-2,5-dichlorobenzenesulfonamide]",100 to 300
14,"COc1ncc(C#N)cc1S(=O)(=O)Nc1ccc(F)c(-n2c(=O)c3cnc(N)nc3n(C)c2=O)c1F [Example 47, N-(3-(7-amino-1-methyl-2,4-dioxo-1,4-dihydropyrimido[4,5-d]pyrimidin-3(2H)-yl)-2,4-difluorophenyl)-5-cyano-2-methoxypyridine-3-sulfonamide]",< 100
15,"Cn1c(=O)n(-c2c(F)ccc(NS(=O)(=O)c3cc(C(F)(F)F)ccc3Cl)c2F)c(=O)c2cnc(N)nc21 [Example 49, N-(3-(7-amino-1-methyl-2,4-dioxo-1,2-dihydropyrimido[4,5-d]pyrimidin-3(4H)-yl)-2,4-difluorophenyl)-2-chloro-5-(trifluoromethyl)benzenesulfonamide]",100 to 300
16,"Cn1c(=O)n(-c2c(F)ccc(NS(=O)(=O)c3ccc(Cl)s3)c2F)c(=O)c2cnc(N)nc21 [Example 50, N-(3-(7-amino-1-methyl-2,4-dioxo-1,4-dihydropyrimido[4,5-d]pyrimidin-3(2H)-yl)-2,4-difluorophenyl)-5-chlorothiophene-2-sulfonamide]",< 100
17,"Cc1ccc(Cl)cc1S(=O)(=O)Nc1ccc(F)c(-n2c(=O)c3cnc(N)nc3n(C)c2=O)c1F [Example 52, N-(3-(7-amino-1-methyl-2,4-dioxo-1,4-dihydropyrimido[4,5-d]pyrimidin-3(2H)-yl)-2,4-difluorophenyl)-5-chloro-2-methylbenzenesulfonamide]",< 100
18,"CN1C(=O)Cc2cc(S(=O)(=O)Nc3ccc(F)c(-n4c(=O)c5cnc(N)nc5n(C)c4=O)c3F)ccc21 [Example 53, N-(3-(7-amino-1-methyl-2,4-dioxo-1,4-dihydropyrimido[4,5-d]pyrimidin-3(2H)-yl)-2,4-difluorophenyl)-1-methyl-2-oxoindoline-5-sulfonamide]",> 1000
19,"Cn1c(=O)n(-c2c(F)ccc(NS(=O)(=O)c3cc(F)ccc3F)c2F)c(=O)c2cnc(N)nc21 [Example 54, N-(3-(7-amino-1-methyl-2,4-dioxo-1,4-dihydropyrimido[4,5-d]pyrimidin-3(2H)-yl)-2,4-difluorophenyl)-2,5-difluorobenzenesulfonamide]",100 to 300
20,"Cn1c(=O)n(-c2c(F)ccc(NS(=O)(=O)c3ccc(Cl)cc3Cl)c2F)c(=O)c2cnc(N)nc21 [Example 55, N-(3-(7-amino-1-methyl-2,4-dioxo-1,2-dihydropyrimido[4,5-d]pyrimidin-3(4H)-yl)-2,4-difluorophenyl)-2,4-dichlorobenzenesulfonamide]",100 to 300
21,"Cn1cc(S(=O)(=O)Nc2ccc(F)c(-n3c(=O)c4cnc(N)nc4n(C)c3=O)c2F)cn1 [Example 56, N-(3-(7-amino-1-methyl-2,4-dioxo-1,4-dihydropyrimido[4,5-d]pyrimidin-3(2H)-yl)-2,4-difluorophenyl)-1-methyl-1H-pyrazole-4-sulfonamide]",> 1000
22,"CNc1ncc2c(=O)n(-c3c(F)ccc(NS(=O)(=O)c4cc(Cl)cnc4OC)c3F)c(=O)n(C)c2n1 [Example 58, 5-chloro-N-(2,4-difluoro-3-(1-methyl-7-(methylamino)-2,4-dioxo-1,4-dihydropyrimido[4,5-d]pyrimidin-3(2H)-yl)phenyl)-2-methoxypyridine-3-sulfonamide]",100 to 300
23,"Nc1ncc2c(n1)N(C1CC1)CN(c1c(F)ccc(NS(=O)(=O)c3cc(Cl)ccc3Cl)c1F)C2=O [Example 59, N-(3-(7-amino-1-cyclopropyl-4-oxo-1,4-dihydropyrimido[4,5-d]pyrimidin-3(2H)-yl)-2,4-difluorophenyl)-2,5-dichlorobenzenesulfonamide]",100 to 300
24,"COc1ncc(Cl)cc1S(=O)(=O)Nc1ccc(F)c(N2CN(C3CC3)c3nc(N)ncc3C2=O)c1F [Example 60, N-(3-(7-amino-1-cyclopropyl-4-oxo-1,4-dihydropyrimido[4,5-d]pyrimidin-3(2H)-yl)-2,4-difluorophenyl)-5-chloro-2-methoxypyridine-3-sulfonamide]",100 to 300
25,"Nc1ncc2c(n1)N(C1CC1)CN(c1c(F)ccc(NS(=O)(=O)c3cccc4ccccc34)c1F)C2=O [Example 61, N-(3-(7-amino-1-cyclopropyl-4-oxo-1,4-dihydropyrimido[4,5-d]pyrimidin-3(2H)-yl)-2,4-difluorophenyl)naphthalene-1-sulfonamide]",100 to 300
26,"Cc1nn(C)c(Cl)c1S(=O)(=O)Nc1ccc(F)c(N2CN(C3CC3)c3nc(N)ncc3C2=O)c1F [Example 62, N-(3-(7-amino-1-cyclopropyl-4-oxo-1,4-dihydropyrimido[4,5-d]pyrimidin-3(2H)-yl)-2,4-difluorophenyl)-5-chloro-1,3-dimethyl-1H-pyrazole-4-sulfonamide]",> 1000
27,"Cc1nn(C)c(Cl)c1S(=O)(=O)Nc1ccc(F)c(-n2c(=O)c3cnc(N)nc3n(C3CC3)c2=O)c1F [Example 66, N-(3-(7-amino-1-cyclopropyl-2,4-dioxo-1,4-dihydropyrimido[4,5-d]pyrimidin-3(2H)-yl)-2,4-difluorophenyl)-5-chloro-1,3-dimethyl-1H-pyrazole-4-sulfonamide]",300 to 1000
